# According to patent US7323542B2, “Bone targeting peptides” (University of Virginia Patent Foundation, priority 2002, dated 2008):
# Assays:
# rib bone = assay: Localisation of peptides to rib tissue
# From the text: The peptides may have different effects depending on cell types from different tissues. The need to explore cells from other tissues, such as fibroblasts, adipocytes or muscle cells, may be determined by the location of the peptide ligands in area of tissue that are not directed within bone but there are adjacent to it. The case in point is that one peptide so far, L19, has been located to a tissue, that has not been identified yet, which, is adjacent to bone in rib. […] Analysis of cell types other than marrow mesenchymal or endothelial cells will help identify the specific cells, and their matrices that are targeted by individual peptides.
# [1] = test system: LNCaP cells binding to huBMEC; assay: Adhesion of 3H-thymidine labeled LNCaP cancer cells to huBMEC lawns in presence of peptide; format: cell-based, human; settings: for PERCENT OF CONTROL AT 2H ADHESION: LNCaP cells on huBMEC; for inhibition of the ability of LNCaP cells to bind to huBMEC: in words, based on Table 1
# From the text: (§1) In accordance with one embodiment a method for inhibiting the growth of tumors is provided. The method comprises the steps of contacting tumor cells with a composition comprising an amino acid sequence selected from the group consisting of SEQ ID NOs: 1-24. As described in Example 3 the peptides of the present invention have been studied for their ability to prevent cancer cells from binding to human bone marrow endothelial cells (huBMEC). Either androgen dependent cancer cells (LNCaP cells) or androgen independent cancer cells (C42 cells) were labeled with 3H-thymidine and placed in contact with huBMEC in the presence of varying concentrations of bone targeting peptides R1 (SEQ ID NO: 25), R3 (SEQ ID NO: 27), L13 (SEQ ID NO: 22) and L19 (SEQ ID NO: 24). The cells were washed and the percent of acid precipitatable counts bound to huBMEC was determined (See Table 1). The control, where no bone targeting peptide was added generated approximately 18% acid ppt counts bound. […] Accordingly, these peptides in particular may be formulated a pharmaceutical compositions to prevent metastases to the bone. The composition may further include known anti-cancer agents such as chemotherapeutic agents. The compositions can be administered to a patient using any of the standard routes including oral and parenteral. In one preferred embodiment the compositions are administered locally by injection.
# (§2) The initial interaction of metastatic cells is with the surface of the organ that will be colonized. Presumably, this interaction is through cell-matrix or cell-cell interaction. There are at least two potential targets for prostate cancer cells to interact, bone stromal cells and bone marrow endothelial cells. Briefly, lawns of target cells (D1 or huBMEC) will be established in 24-well dishes by seeding ˜5×10^4 cells per well 2-3 days before the adhesion experiment. At this time, subconfluent (˜50%) cultures of test cells (LNCaP, C4-2, DU145 and PC-3) will be placed into media with 1 uCi/ml tritiated thymidine. Two to three days later, labeled cells will be removed using a 5-10 mM EDTA/PBS solution and 1×10^5 test cells will be added to confluent lawns of target cells. Three groups are envisioned for each cell line 1) no peptide, 2) peptide at ED50 and 3) peptide at ED90.
# (§3) There will also be an aliquot of labeled cells set aside to determine total acid precipitablc counts added. Adhesion assays will proceed for either 1 or 2 hours. Adherent cells will be separated from non-adherent cells by 2 rounds of 0.5 ml washes with PBS at 100 rpm for 2 minutes per wash. The remaining cells will then be fixed in 10% TCA for 10 min. with gentle shaking followed by hydrolysis of the residue in 0.5 ml of 2 N NaOH. The NaOH will be neutralized by 100 ul of concentrated HCl. The samples will then be counted in a liquid scintillation apparatus. The data will be analyzed by the Mellon Prostate Center Biostatistics Core to determine differences in growth and the ED50 and ED90 for each peptide if reasonable.
# (§4) Using this adhesion assay the bone targeting peptides have been studied for their ability to prevent cancer cells from binding to huBMEC. Either androgen dependent cancer cells (LNCaP cells) or androgen independent cancer cells (C42 cells) were labeled with 3H-thymidine and placed in contact with huBMEC in the presence of varying concentrations of bone targeting peptides R1 (SEQ ID NO: 25), R3 (SEQ ID NO: 27), L13 (SEQ ID NO: 22) and L19 (SEQ ID NO: 24). The cells were washed and the percent of acid precipitatable counts bound to huBMEC was determined (See Table 1). The control, where no bone targeting peptide was added, is not shown, but generated approximately 18% acid ppt counts bound. […] Accordingly, these peptides in particular may be formulated a pharmaceutical compositions to prevent metastases to the bone.
# [2] = test system: C4-2 cells binding to huBMEC; assay: Adhesion of 3H-thymidine labeled C4-2 cancer cells to huBMEC lawns in presence of peptide; format: cell-based, human; settings: for PERCENT OF CONTROL AT 2H ADHESION: C4-2 cells on huBMEC; for inhibition of the ability of C42 cells to bind to huBMEC: in words, based on Table 1
# From the text: as §1, §2, §3, §4
# [3] = test system: bone marrow derived mesenchymal cells and human bone marrow endothelial cells; assay: Binding of biotin-coupled peptides to cells in vitro, avidin-FITC detection; format: cell-based
# From the text: The cells currently investigated for binding to the peptides of the present invention were chosen because they are derived from bone marrow and are characteristic of mesenchymal cells that are pluripotential and behave as osteoprogenitors. The cells are capable of differentiating into bone cells in vitro and retain their osteogenic properties after transplantation in vivo into syngeneic mice. The human bone marrow endothelial cells are non-osteogenic and, therefore, are in contrast to the collagen type I, and mineral, producing properties of mesenchymal cells. The bone marrow endothelial cells serve the purpose of having a cell that is derived from the endothelial lining of the bone marrow cavity i.e. a cell from the endosteal surface. Although these are not the only cells that can be used, they will form the basis of the majority of the present studies with cells. […]
# Peptides have been synthesized with a gly-gly-gly linker and coupled to biotin. […] Fluorescence was found at attachment sites of cellular processes to the substratum. […]
# Control experiments with non-biotinylated peptides will ensure that binding avidin-FITC is specific to the properties of the peptide that target the cell surface or its extracellular matrix. No non-specific binding has been encountered so far with the three peptide sequences that have been explored and, there was no background fluorescence.
Substance,binding to bone (in rib) (rib bone),PERCENT OF CONTROL AT 2H ADHESION ([1]; peptide 50 μM),PERCENT OF CONTROL AT 2H ADHESION ([1]; peptide 100 μM),inhibition of the ability of LNCaP cells to bind to huBMEC [1],PERCENT OF CONTROL AT 2H ADHESION ([2]; peptide 50 μM),PERCENT OF CONTROL AT 2H ADHESION ([2]; peptide 100 μM),inhibition of the ability of C42 cells to bind to huBMEC [2],binding to cells in culture [3],tissue localisation of peptide (rib bone; preliminary)
SER-GLY-HIS-GLN-LEU-LEU-LEU-ASN-LYS-MET-PRO-ASN (SGHQLLLNKMPN; listed as Homo sapiens) [L13],binds to rib bone,3.8 % of control,2.8 % of control,substantially inhibits,5.8 % of control,4.2 % of control,substantially inhibits,,
ASN- TYR-SER-HIS-LEU-ARG- VAL-LYS-LEU-PRO-THR-PRO (NYSHLRVKLPTP; listed as Homo sapiens) [R1],,14.7 % of control,9.9 % of control,,9.0 % of control,9.6 % of control,,binds to cells in culture,
ASP-SER-SER-ASN-PRO-ILE-PHE- TRP-ARG-PRO-SER-SER (DSSNPIFWRPSS; listed as Homo sapiens) [L19],not detected in the bone itself,3.3 % of control,4.1 % of control,,15.6 % of control,18.4 % of control,substantially inhibits,,localized to a soft tissue adjacent to rib
ALA- THR- TRP-SER-HIS-HIS-LEU-SER-SER-ALA-GLY-LEU (ATWSHHLSSAGL; listed as Homo sapiens) [R3],,14.7 % of control,3.8 % of control,substantially inhibits,17.9 % of control,7.9 % of control,substantially inhibits,,
